Measurements published in patent US20110275559A1, “Long-Acting Y2 and/or Y4 Receptor Agonists” (Novo Nordisk A/S, priority 2008, published 2011).
Read-outs that look alike come from different tables or passages of the source. *1 amine or outer side, *2 acyl side, *3 side chain or, on linkers, in order; H or OH if unused. Where a SMILES comes first, the peptide text is derived from it. Side-chain parts run from the residue outwards. The star is where a group is joined. C20 diacid = O=C(O)CCCCCCCCCCCCCCCCCCC(=O)*; C18 diacid = O=C(O)CCCCCCCCCCCCCCCCC(=O)*; γGlu = O=C(O)[C@H](CCC(=O)[*:2])N[*:1]; Trx = NC[C@H]1CC[C@H](C(=O)O)CC1; AEEA = NCCOCCOCC(=O)O

Key:
[1] = molecular target: T1, Y4 receptor (Homo sapiens, UniProt P50391); assay: Y4 receptor ACTOne based FLIPR assay (cAMP biosensor); type: cell-based
T1 construct: host or cells: ACTOne HEK-293 cells
T1 sequence (P50391 whole entry): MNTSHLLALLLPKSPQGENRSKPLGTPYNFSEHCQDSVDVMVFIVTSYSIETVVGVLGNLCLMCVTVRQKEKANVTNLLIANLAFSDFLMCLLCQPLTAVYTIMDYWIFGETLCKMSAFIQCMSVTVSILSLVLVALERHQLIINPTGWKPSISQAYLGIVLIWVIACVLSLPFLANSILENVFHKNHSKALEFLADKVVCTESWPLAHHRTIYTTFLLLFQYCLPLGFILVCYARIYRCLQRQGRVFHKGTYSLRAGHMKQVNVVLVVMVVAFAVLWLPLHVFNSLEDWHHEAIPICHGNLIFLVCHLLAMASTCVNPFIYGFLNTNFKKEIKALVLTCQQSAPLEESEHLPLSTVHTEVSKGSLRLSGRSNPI
From the text: ACTOne™ is an easily scaleable cAMP biosensor HTS platform for measurement of Gs and Gi coupled 7™ receptor signalling from BD Biosciences (San Jose, Calif.). The cells express a biosensor developed around a modified rat olfactory cyclic nucleotide gated (CNG) calcium channel—a fairly non-discriminatory ion channel that responds to cAMP and cGMP. The CNG has been engineered to be cAMP selective and thus function as a cAMP responsive biosensor that signals through calcium or membrane potential responsive dyes. Y2 or Y4 receptor expressing ACTOne HEK-293 cells are obtained from BD Biosciences. The cells are loaded with a calcium responsive dye that only distributes in the cytoplasm. Probenecid, an inhibitor of the organic anion transporter is added to prevent the dye from leaving the cell. A phosphodiesterase inhibitor is added to prevent formatted cAMP from being degraded. Isoproterenol (an β1/β2 agonist) is added to activate the adenylate cyclase. When an Y2 or Y4 receptor agonist is added, the adenylate cyclase is inactivated. The decreased calcium concentration in the cytoplasm is then detected as an increase in fluorescence. Together with the test substance, Isoproterenol at a concentration matching EC80, is added to all wells. • The cells are plated out in Greiner 384-well plates. […] The plates are covered with tinfoil to avoid light (the dye can be excited by the daylight, which results in higher baseline and variation). • The FLIPR (FLIPRtetra from Molecular Devices, CA, USA) adds 1 μl sample and 1 μl isoproterenol (0.05 μM final concentration) at the same time. • The fluorescence signal from the wells is measured 330 seconds after sample addition on the FLIPR.

[2] = Mini-pig PK assay (plasma half-life); conditions: Göttingen, minipig
Method in brief: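 Catheterised mini-pigs received compound i.v. at 10 nmol/kg in pH 4.0 phosphate/NaCl/tween vehicle, or alternatively i.v. or s.c. at 1–30 nmol/kg in pH 8.0 K2HPO4/tween. Stabilised plasma was sampled up to 13 days and assayed by LC-MS (LLOQ 2 nM). Half-life came from non-compartmental analysis of individual animal profiles.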

[3] = molecular target: T2, Y2 receptor (Homo sapiens, UniProt P49146); assay: Y2 receptor ACTOne based FLIPR assay (cAMP biosensor); type: cell-based
T2 construct: host or cells: ACTOne HEK-293 cells
T2 sequence (P49146 1-381): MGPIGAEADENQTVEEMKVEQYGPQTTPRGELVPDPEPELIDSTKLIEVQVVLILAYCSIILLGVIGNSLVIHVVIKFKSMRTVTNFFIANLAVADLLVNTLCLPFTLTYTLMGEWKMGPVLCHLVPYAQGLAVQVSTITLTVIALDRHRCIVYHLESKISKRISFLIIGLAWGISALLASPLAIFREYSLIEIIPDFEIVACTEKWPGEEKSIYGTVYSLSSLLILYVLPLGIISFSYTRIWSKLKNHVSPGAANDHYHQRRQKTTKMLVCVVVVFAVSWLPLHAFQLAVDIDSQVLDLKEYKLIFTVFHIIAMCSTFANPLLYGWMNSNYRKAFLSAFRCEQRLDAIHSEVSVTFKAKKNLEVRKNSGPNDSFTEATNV

[4] = Table 2, PP analogues, ACTOne HEK-293 cells, read-out: Y4 cAMP EC50
[5] = Table 2, PP analogues, ACTOne HEK-293 cells, read-out: Y2 cAMP EC50

EC50 [1, 4] | half-life ([2]; iv, […]) | EC50 [3, 5] | half-life ([2]; male, sc, […]) | SMILES | EC50 [1] | half-life ([2]; in vivo, iv, 1 nmol/kg) | half-life ([2]; in vivo, iv, 30 nmol/kg) | EC50 [3]
– | – | – | – | CC[C@H](C)[C@H](NC(=O)[C@H](Cc1ccc(O)cc1)NC(=O)[C@H](CCCNC(=N)N)NC(=O)[C@H](CCCNC(=N)N)NC(=O)[C@H](CC(C)C)NC(=O)[C@H](CC(=O)O)NC(=O)[C@H](C)NC(=O)[C@H](C)NC(=O)[C@H](Cc1ccc(O)cc1)NC(=O)[C@H](CCC(N)=O)NC(=O)[C@H](C)NC(=O)[C@H](CC(C)C)NC(=O)[C@H](CCC(N)=O)NC(=O)[C@H](CCC(=O)O)NC(=O)[C@@H]1CCCN1C(=O)[C@H](CCCCNC(=O)COCCOCCNC(=O)COCCOCCNC(=O)CC[C@H](NC(=O)[C@H]1CC[C@H](CNC(=O)CCCCCCCCCCCCCCCCCCC(=O)O)CC1)C(=O)O)NC(=O)[C@H](C)NC(=O)[C@H](CC(N)=O)NC(=O)[C@H](CC(=O)O)NC(=O)CNC(=O)[C@@H]1CCCN1C(=O)[C@H](Cc1ccc(O)cc1)NC(=O)[C@@H](NC(=O)[C@@H]1CCCN1C(=O)[C@H](CCC(=O)O)NC(=O)[C@H](CC(C)C)NC(=O)[C@@H]1CCCN1C(=O)[C@H](C)N)C(C)C)C(=O)N[C@@H](CC(N)=O)C(=O)N[C@H](C(=O)N[C@@H](CC(C)C)C(=O)N[C@H](C(=O)N[C@@H](CCCNC(=N)N)C(=O)N[C@@H](CCC(N)=O)C(=O)N[C@@H](CCCNC(=N)N)C(=O)N[C@@H](Cc1ccc(O)cc1)C(N)=O)[C@@H](C)O)C(C)C [SEQ ID NO: 17, N-epsilon13-[2-(2-{2-[2-(2-{2-[(S)-4-Carboxy-4-({trans-4-[(19-carboxynonadecanoylamino)methyl]cyclohexanecarbonyl}amino)butyrylamino]-ethoxy}ethoxy)acetylamino]ethoxy}ethoxy)acetyl][Lys13,Leu17,Val30,Gln34]hPP(1-36)] (H-APLEPVYPGDNAK([AEEA-AEEA-γGlu-Trx-C20 diacid])PEQLAQYAADLRRYINVLTRQRY-NH2; N-terminus and C-terminus assumed) | 7 nM | – | – | –
– | – | – | – | CC[C@H](C)[C@H](NC(=O)[C@H](Cc1ccc(O)cc1)NC(=O)[C@H](CCCNC(=N)N)NC(=O)[C@H](CCCNC(=N)N)NC(=O)[C@H](CC(C)C)NC(=O)[C@H](CC(=O)O)NC(=O)[C@H](C)NC(=O)[C@H](C)NC(=O)[C@H](Cc1ccc(O)cc1)NC(=O)[C@H](CCC(N)=O)NC(=O)[C@H](C)NC(=O)[C@H](CC(C)C)NC(=O)[C@H](CCC(N)=O)NC(=O)[C@H](CCC(=O)O)NC(=O)[C@@H]1CCCN1C(=O)[C@@H](NC(=O)[C@H](C)NC(=O)[C@H](CCCCNC(=O)COCCOCCNC(=O)COCCOCCNC(=O)CC[C@H](NC(=O)[C@H]1CC[C@H](CNC(=O)CCCCCCCCCCCCCCCCCCC(=O)O)CC1)C(=O)O)NC(=O)[C@H](CC(=O)O)NC(=O)CNC(=O)[C@@H]1CCCN1C(=O)[C@H](Cc1ccc(O)cc1)NC(=O)[C@@H](NC(=O)[C@@H]1CCCN1C(=O)[C@H](CCC(=O)O)NC(=O)[C@H](CC(C)C)NC(=O)[C@@H]1CCCN1)C(C)C)[C@@H](C)O)C(=O)N[C@@H](CC(N)=O)C(=O)N[C@@H](CC(C)C)C(=O)N[C@@H](CC(C)C)C(=O)N[C@H](C(=O)N[C@@H](CCCNC(=N)N)C(=O)N1CCC[C@H]1C(=O)N[C@@H](CCCNC(=N)N)C(=O)N[C@@H](Cc1ccc(O)cc1)C(N)=O)[C@@H](C)O [SEQ ID NO: 29, N-epsilon11-[2-(2-{2-[2-(2-{2-[(S)-4-Carboxy-4-({trans-4-[(19-carboxynonadecanoylamino)methyl]cyclohexanecarbonyl}amino)butyrylamino]-ethoxy}ethoxy)acetylamino]ethoxy}ethoxy)acetyl][Lys11,Leu17,Leu30]hPP2-36] (H-PLEPVYPGDK([AEEA-AEEA-γGlu-Trx-C20 diacid])ATPEQLAQYAADLRRYINLLTRPRY-NH2; N-terminus and C-terminus assumed) | 2 nM | 1380 min | 1620 min | > 1000 nM
1 nM | 1320 min | > 1000 nM | – | CC[C@H](C)[C@H](NC(=O)[C@H](Cc1ccc(O)cc1)NC(=O)[C@H](CCCNC(=N)N)NC(=O)[C@H](CCCNC(=N)N)NC(=O)[C@H](CC(C)C)NC(=O)[C@H](CC(=O)O)NC(=O)[C@H](C)NC(=O)[C@H](C)NC(=O)[C@H](Cc1ccc(O)cc1)NC(=O)[C@H](CCC(N)=O)NC(=O)[C@H](C)NC(=O)[C@H](CC(C)C)NC(=O)[C@H](CCC(N)=O)NC(=O)[C@H](CCC(=O)O)NC(=O)[C@@H]1CCCN1C(=O)[C@@H](NC(=O)[C@H](C)NC(=O)[C@H](CCCCNC(=O)COCCOCCNC(=O)COCCOCCNC(=O)CC[C@H](NC(=O)CCCCCCCCCCCCCCCCC(=O)O)C(=O)O)NC(=O)[C@H](CC(=O)O)NC(=O)CNC(=O)[C@@H]1CCCN1C(=O)[C@H](Cc1ccc(O)cc1)NC(=O)[C@@H](NC(=O)[C@@H]1CCCN1C(=O)[C@H](CCC(=O)O)NC(=O)[C@H](CC(C)C)NC(=O)[C@@H]1CCCN1)C(C)C)[C@@H](C)O)C(=O)N[C@@H](CC(N)=O)C(=O)N[C@@H](CC(C)C)C(=O)N[C@@H](CC(C)C)C(=O)N[C@H](C(=O)N[C@@H](CCCNC(=N)N)C(=O)N1CCC[C@H]1C(=O)N[C@@H](CCCNC(=N)N)C(=O)N[C@@H](Cc1ccc(O)cc1)C(N)=O)[C@@H](C)O [SEQ ID NO: 30, N-epsilon11-[2-(2-{2-[2-(2-{2-[(S)-4-Carboxy-4-(17-carboxyheptadecanoylamino)butyrylamino]ethoxy}ethoxy)acetylamino]-ethoxy}ethoxy)acetyl][Lys11,Leu17,Leu30]hPP2-36] (H-PLEPVYPGDK([AEEA-AEEA-γGlu-C18 diacid])ATPEQLAQYAADLRRYINLLTRPRY-NH2; N-terminus and C-terminus assumed) | – | – | – | –
> 1000 nM | 6300 min | > 1000 nM | 5580 min | CC[C@H](C)[C@H](NC(=O)[C@H](Cc1ccc(O)cc1)NC(=O)[C@H](CCCNC(=N)N)NC(=O)[C@H](CCCNC(=N)N)NC(=O)[C@H](CC(C)C)NC(=O)[C@H](CC(=O)O)NC(=O)[C@H](C)NC(=O)[C@H](C)NC(=O)[C@H](Cc1ccc(O)cc1)NC(=O)[C@H](CCC(N)=O)NC(=O)[C@H](C)NC(=O)[C@H](CC(C)C)NC(=O)[C@H](CCC(N)=O)NC(=O)[C@H](CCC(=O)O)NC(=O)[C@@H]1CCCN1C(=O)[C@@H](NC(=O)[C@H](C)NC(=O)[C@H](CC(N)=O)NC(=O)[C@H](CC(=O)O)NC(=O)CNC(=O)[C@@H]1CCCN1C(=O)[C@H](Cc1ccc(O)cc1)NC(=O)[C@@H](NC(=O)[C@@H]1CCCN1C(=O)[C@H](CCC(=O)O)NC(=O)[C@H](CC(C)C)NC(=O)[C@@H]1CCCN1)C(C)C)[C@@H](C)O)C(=O)N[C@@H](CC(N)=O)C(=O)N[C@@H](CC(C)C)C(=O)N[C@@H](CC(C)C)C(=O)N[C@H](C(=O)N[C@@H](CCCCNC(=O)COCCOCCNC(=O)COCCOCCNC(=O)CC[C@H](NC(=O)CCCCCCCCCCCCCCCCC(=O)O)C(=O)O)C(=O)N1CCC[C@H]1C(=O)N[C@@H](CCCNC(=N)N)C(=O)N[C@@H](Cc1ccc(O)cc1)C(N)=O)[C@@H](C)O [SEQ ID NO: 41, N-epsilon33-[2-(2-{2-[2-(2-{2-[(S)-4-Carboxy-4-(17-carboxyheptadecanoylamino)butyrylamino]ethoxy}ethoxy)acetylamino]-ethoxy}ethoxy)acetyl][Leu17,Leu30,Lys33]hPP2-36] (H-PLEPVYPGDNATPEQLAQYAADLRRYINLLTK([AEEA-AEEA-γGlu-C18 diacid])PRY-NH2) | – | – | – | –
